One block for each compound: values may come before it.
Experiments:
[1] = biological target: Serine/threonine-protein kinase NLK (Homo sapiens) (UniProt Q9UBE8); assay: Inhibition of NLK (unknown origin) at 0.1 uM relative to control
[2] = biological target: Serine/threonine-protein kinase WNK2 (Homo sapiens) (UniProt Q9Y3S1); assay: Inhibition of WNK2 (unknown origin) at 0.1 uM relative to control
TAK1/TAB1 (Homo sapiens) = TAK1/TAB1 (Homo sapiens) (UniProt Q15750+O43318); assay: Inhibition of TAK1-TAB1 (unknown origin) at 0.1 uM relative to control; format: protein-complex assay
[3] = biological target: Serine/threonine-protein kinase 26 (Homo sapiens) (UniProt Q9P289); assay: Inhibition of MST4 (unknown origin) at 0.1 uM relative to control
[4] = biological target: Protein kinase C eta type (Homo sapiens) (UniProt P24723); assay: Inhibition of PKCeta (unknown origin) at 0.1 uM relative to control
[5] = biological target: cAMP-dependent protein kinase (PKA) (Homo sapiens) (UniProt P22694+P17612+P22612); assay: Inhibition of PKA (unknown origin) at 0.1 uM relative to control; format: protein assay
[6] = biological target: Phosphatidylinositol 4,5-bisphosphate 3-kinase catalytic subunit gamma isoform (Homo sapiens) (UniProt P48736); assay: Inhibition of PI3Kgamma (unknown origin) at 0.1 uM relative to control
[7] = biological target: Ephrin type-B receptor 1 (Homo sapiens) (UniProt P54762); assay: Inhibition of EphB1 (unknown origin) at 0.1 uM relative to control
[8] = biological target: Receptor-interacting serine/threonine-protein kinase 2 (Homo sapiens) (UniProt O43353); assay: Inhibition of RIPK2 (unknown origin) at 0.1 uM relative to control
[9] = biological target: Non-receptor tyrosine-protein kinase TYK2 (Homo sapiens) (UniProt P29597); assay: Inhibition of TYK2 (unknown origin) at 0.1 uM relative to control
[10] = biological target: Dual specificity mitogen-activated protein kinase kinase 2 (Homo sapiens) (UniProt P36507); assay: Inhibition of MEK2 (unknown origin) at 0.1 uM relative to control
[11] = biological target: Serine/threonine-protein kinase Sgk2 (Homo sapiens) (UniProt Q9HBY8); assay: Inhibition of SGK2 (unknown origin) at 0.1 uM relative to control
[12] = biological target: Fibroblast growth factor receptor 4 (Homo sapiens) (UniProt P22455); assay: Inhibition of FGFR4 (unknown origin) at 0.1 uM relative to control
[13] = biological target: Dual specificity tyrosine-phosphorylation-regulated kinase 1A (Homo sapiens) (UniProt Q13627); assay: Inhibition of DYRK1A (unknown origin) at 0.1 uM relative to control
[14] = biological target: RAC-beta serine/threonine-protein kinase (Homo sapiens) (UniProt P31751); assay: Inhibition of AKT2 (unknown origin) at 0.1 uM relative to control
[15] = biological target: Tyrosine-protein kinase JAK1 (Homo sapiens) (UniProt P23458); assay: Inhibition of JAK1 (unknown origin) at 0.1 uM relative to control
[16] = biological target: Tyrosine-protein kinase receptor TYRO3 (Homo sapiens) (UniProt Q06418); assay: Inhibition of Rse (unknown origin) at 0.1 uM relative to control
[17] = biological target: Receptor tyrosine-protein kinase erbB-2 (Homo sapiens) (UniProt P04626); assay: Inhibition of ErbB2 (unknown origin) at 0.1 uM relative to control
[18] = biological target: Megakaryocyte-associated tyrosine-protein kinase (Homo sapiens) (UniProt P42679); assay: Inhibition of Hyl (unknown origin) at 0.1 uM relative to control
[19] = biological target: Dual specificity protein kinase CLK2 (Homo sapiens) (UniProt P49760); assay: Inhibition of CLK2 (unknown origin) at 0.1 uM relative to control
[20] = biological target: Tyrosine-protein kinase CSK (Homo sapiens) (UniProt P41240); assay: Inhibition of CSK (unknown origin) at 0.1 uM relative to control
[21] = biological target: SRSF protein kinase 1 (Homo sapiens) (UniProt Q96SB4); assay: Inhibition of SRPK1 (unknown origin) at 0.1 uM relative to control
[22] = biological target: Mitogen-activated protein kinase 11 (Homo sapiens) (UniProt Q15759); assay: Inhibition of p38beta (unknown origin) at 0.1 uM relative to control
[23] = biological target: Casein kinase I isoform alpha (Homo sapiens) (UniProt P48729); assay: Inhibition of CK1alpha1 (unknown origin) at 0.1 uM relative to control
[24] = biological target: Homeodomain-interacting protein kinase 2 (Homo sapiens) (UniProt Q9H2X6); assay: Inhibition of HIPK2 (unknown origin) at 0.1 uM relative to control
[25] = biological target: Serine/threonine-protein kinase BRSK1 (Homo sapiens) (UniProt Q8TDC3); assay: Inhibition of BrSK1 (unknown origin) at 0.1 uM relative to control
[26] = biological target: Homeodomain-interacting protein kinase 1 (Homo sapiens) (UniProt Q86Z02); assay: Inhibition of HIPK1 (unknown origin) at 0.1 uM relative to control
[27] = biological target: Tyrosine-protein kinase Yes (Homo sapiens) (UniProt P07947); assay: Inhibition of Yes (unknown origin) at 0.1 uM relative to control
[28] = biological target: Serine/threonine-protein kinase MRCK alpha (Homo sapiens) (UniProt Q5VT25); assay: Inhibition of MRCKalpha (unknown origin) at 0.1 uM relative to control
[29] = biological target: Tyrosine-protein kinase receptor UFO (Homo sapiens) (UniProt P30530); assay: Inhibition of Axl (unknown origin) at 0.1 uM relative to control
[30] = biological target: Serine/threonine-protein kinase Sgk1 (Homo sapiens) (UniProt O00141); assay: Inhibition of SGK1 (unknown origin) at 0.1 uM relative to control
[31] = biological target: Serine/threonine-protein kinase PLK1 (Homo sapiens) (UniProt P53350); assay: Inhibition of PLK1 (unknown origin) at 0.1 uM relative to control
[32] = biological target: Serine/threonine-protein kinase PLK2 (Homo sapiens) (UniProt Q9NYY3); assay: Inhibition of PLK2 (unknown origin) at 0.1 uM relative to control
[33] = biological target: Dual specificity protein kinase CLK1 (Homo sapiens) (UniProt P49759); assay: Inhibition of CLK1 (unknown origin) at 0.1 uM relative to control
[34] = biological target: Vascular endothelial growth factor receptor 3 (Homo sapiens) (UniProt P35916); assay: Inhibition of Flt4 (unknown origin) at 0.1 uM relative to control
[35] = biological target: Interleukin-1 receptor-associated kinase 4 (Homo sapiens) (UniProt Q9NWZ3); assay: Inhibition of IRAK4 (unknown origin) at 0.1 uM relative to control
[36] = biological target: Tyrosine-protein kinase ITK/TSK (Homo sapiens) (UniProt Q08881); assay: Inhibition of Itk (unknown origin) at 0.1 uM relative to control
[37] = biological target: Aurora kinase B (Homo sapiens) (UniProt Q96GD4); assay: Inhibition of Aurora B (unknown origin) at 0.1 uM relative to control
[38] = biological target: MAP kinase-activated protein kinase 5 (Homo sapiens) (UniProt Q8IW41); assay: Inhibition of PRAK (unknown origin) at 0.1 uM relative to control

Sequence of Protein kinase C eta type (Homo sapiens) (P24723 whole entry): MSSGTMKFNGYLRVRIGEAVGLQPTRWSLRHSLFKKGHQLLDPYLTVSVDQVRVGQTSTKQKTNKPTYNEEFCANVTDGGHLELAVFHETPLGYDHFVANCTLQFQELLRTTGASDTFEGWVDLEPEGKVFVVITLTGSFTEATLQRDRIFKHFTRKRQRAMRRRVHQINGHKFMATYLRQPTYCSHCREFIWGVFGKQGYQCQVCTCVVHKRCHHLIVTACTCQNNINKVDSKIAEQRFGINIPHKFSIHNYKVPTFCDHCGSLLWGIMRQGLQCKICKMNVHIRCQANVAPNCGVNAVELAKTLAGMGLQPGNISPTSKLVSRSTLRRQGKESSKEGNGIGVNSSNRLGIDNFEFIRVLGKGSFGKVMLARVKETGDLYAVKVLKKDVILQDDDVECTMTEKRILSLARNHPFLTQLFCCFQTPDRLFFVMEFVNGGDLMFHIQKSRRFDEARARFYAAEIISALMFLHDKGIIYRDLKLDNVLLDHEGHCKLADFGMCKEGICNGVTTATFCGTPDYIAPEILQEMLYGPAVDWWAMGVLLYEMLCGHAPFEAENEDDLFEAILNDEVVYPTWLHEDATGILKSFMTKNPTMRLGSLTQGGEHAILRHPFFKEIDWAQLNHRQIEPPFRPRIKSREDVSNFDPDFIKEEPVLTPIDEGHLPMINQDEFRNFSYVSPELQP
Sequence of Serine/threonine-protein kinase 26 (Homo sapiens) (Q9P289 2-416 limits assumed): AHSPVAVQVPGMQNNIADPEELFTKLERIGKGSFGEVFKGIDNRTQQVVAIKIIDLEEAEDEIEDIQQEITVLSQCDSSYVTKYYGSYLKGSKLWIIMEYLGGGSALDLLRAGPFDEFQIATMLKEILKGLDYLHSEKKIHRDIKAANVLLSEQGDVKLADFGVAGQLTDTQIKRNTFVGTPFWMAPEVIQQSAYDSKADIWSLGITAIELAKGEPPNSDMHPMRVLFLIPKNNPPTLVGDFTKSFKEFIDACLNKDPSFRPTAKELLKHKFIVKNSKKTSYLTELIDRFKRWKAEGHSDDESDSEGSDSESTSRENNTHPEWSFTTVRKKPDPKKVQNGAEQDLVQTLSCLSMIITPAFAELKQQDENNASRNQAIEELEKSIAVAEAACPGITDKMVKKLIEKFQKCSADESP
Sequence of Mitogen-activated protein kinase 11 (Homo sapiens) (Q15759 whole entry, canonical isoform): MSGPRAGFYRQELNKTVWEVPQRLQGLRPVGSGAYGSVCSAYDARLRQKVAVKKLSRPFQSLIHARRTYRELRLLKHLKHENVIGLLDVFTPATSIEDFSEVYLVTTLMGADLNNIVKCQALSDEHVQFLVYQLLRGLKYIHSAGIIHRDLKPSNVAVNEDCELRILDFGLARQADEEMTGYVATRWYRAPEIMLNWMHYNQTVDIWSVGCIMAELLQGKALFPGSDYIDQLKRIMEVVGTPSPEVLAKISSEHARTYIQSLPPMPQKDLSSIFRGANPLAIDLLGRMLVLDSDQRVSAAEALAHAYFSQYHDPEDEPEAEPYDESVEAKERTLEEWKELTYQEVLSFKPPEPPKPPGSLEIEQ
Sequence of Serine/threonine-protein kinase BRSK1 (Homo sapiens) (Q8TDC3 whole entry): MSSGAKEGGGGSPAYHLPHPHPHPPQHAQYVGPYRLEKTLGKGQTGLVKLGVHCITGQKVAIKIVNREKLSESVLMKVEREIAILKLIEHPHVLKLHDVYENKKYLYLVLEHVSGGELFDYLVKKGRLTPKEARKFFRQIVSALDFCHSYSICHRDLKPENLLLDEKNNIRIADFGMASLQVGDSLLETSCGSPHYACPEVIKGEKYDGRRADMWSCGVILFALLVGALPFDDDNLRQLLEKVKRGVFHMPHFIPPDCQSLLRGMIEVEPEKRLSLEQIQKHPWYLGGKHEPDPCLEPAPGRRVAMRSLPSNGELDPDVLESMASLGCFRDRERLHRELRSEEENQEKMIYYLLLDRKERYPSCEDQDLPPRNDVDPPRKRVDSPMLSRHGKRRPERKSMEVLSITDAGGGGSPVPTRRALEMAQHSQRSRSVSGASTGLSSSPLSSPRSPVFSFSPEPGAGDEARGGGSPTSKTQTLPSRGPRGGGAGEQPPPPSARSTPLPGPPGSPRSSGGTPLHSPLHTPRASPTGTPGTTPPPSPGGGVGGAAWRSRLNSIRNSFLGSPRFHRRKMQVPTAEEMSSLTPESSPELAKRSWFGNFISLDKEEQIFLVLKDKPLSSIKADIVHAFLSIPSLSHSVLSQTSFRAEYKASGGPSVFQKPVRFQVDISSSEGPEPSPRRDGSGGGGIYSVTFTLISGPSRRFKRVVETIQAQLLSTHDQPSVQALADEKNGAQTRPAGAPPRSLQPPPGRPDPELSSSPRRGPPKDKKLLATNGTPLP
Sequence of Tyrosine-protein kinase Yes (Homo sapiens) (P07947 2-543 limits assumed): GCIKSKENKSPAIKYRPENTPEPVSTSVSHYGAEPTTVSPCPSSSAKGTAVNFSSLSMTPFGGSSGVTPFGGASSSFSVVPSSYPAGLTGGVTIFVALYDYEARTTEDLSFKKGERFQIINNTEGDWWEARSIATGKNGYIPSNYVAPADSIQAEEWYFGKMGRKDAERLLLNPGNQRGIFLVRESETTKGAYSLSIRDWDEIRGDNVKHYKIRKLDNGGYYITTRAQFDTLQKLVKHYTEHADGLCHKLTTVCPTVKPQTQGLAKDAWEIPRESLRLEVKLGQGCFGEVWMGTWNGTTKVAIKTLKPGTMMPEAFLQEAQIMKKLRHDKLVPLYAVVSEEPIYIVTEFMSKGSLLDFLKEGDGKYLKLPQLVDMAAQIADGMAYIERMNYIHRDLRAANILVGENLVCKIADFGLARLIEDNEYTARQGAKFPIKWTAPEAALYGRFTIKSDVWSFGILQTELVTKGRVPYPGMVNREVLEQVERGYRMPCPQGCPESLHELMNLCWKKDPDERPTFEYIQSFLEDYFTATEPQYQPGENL
Sequence of Serine/threonine-protein kinase WNK2 (Homo sapiens) (Q9Y3S1 whole entry): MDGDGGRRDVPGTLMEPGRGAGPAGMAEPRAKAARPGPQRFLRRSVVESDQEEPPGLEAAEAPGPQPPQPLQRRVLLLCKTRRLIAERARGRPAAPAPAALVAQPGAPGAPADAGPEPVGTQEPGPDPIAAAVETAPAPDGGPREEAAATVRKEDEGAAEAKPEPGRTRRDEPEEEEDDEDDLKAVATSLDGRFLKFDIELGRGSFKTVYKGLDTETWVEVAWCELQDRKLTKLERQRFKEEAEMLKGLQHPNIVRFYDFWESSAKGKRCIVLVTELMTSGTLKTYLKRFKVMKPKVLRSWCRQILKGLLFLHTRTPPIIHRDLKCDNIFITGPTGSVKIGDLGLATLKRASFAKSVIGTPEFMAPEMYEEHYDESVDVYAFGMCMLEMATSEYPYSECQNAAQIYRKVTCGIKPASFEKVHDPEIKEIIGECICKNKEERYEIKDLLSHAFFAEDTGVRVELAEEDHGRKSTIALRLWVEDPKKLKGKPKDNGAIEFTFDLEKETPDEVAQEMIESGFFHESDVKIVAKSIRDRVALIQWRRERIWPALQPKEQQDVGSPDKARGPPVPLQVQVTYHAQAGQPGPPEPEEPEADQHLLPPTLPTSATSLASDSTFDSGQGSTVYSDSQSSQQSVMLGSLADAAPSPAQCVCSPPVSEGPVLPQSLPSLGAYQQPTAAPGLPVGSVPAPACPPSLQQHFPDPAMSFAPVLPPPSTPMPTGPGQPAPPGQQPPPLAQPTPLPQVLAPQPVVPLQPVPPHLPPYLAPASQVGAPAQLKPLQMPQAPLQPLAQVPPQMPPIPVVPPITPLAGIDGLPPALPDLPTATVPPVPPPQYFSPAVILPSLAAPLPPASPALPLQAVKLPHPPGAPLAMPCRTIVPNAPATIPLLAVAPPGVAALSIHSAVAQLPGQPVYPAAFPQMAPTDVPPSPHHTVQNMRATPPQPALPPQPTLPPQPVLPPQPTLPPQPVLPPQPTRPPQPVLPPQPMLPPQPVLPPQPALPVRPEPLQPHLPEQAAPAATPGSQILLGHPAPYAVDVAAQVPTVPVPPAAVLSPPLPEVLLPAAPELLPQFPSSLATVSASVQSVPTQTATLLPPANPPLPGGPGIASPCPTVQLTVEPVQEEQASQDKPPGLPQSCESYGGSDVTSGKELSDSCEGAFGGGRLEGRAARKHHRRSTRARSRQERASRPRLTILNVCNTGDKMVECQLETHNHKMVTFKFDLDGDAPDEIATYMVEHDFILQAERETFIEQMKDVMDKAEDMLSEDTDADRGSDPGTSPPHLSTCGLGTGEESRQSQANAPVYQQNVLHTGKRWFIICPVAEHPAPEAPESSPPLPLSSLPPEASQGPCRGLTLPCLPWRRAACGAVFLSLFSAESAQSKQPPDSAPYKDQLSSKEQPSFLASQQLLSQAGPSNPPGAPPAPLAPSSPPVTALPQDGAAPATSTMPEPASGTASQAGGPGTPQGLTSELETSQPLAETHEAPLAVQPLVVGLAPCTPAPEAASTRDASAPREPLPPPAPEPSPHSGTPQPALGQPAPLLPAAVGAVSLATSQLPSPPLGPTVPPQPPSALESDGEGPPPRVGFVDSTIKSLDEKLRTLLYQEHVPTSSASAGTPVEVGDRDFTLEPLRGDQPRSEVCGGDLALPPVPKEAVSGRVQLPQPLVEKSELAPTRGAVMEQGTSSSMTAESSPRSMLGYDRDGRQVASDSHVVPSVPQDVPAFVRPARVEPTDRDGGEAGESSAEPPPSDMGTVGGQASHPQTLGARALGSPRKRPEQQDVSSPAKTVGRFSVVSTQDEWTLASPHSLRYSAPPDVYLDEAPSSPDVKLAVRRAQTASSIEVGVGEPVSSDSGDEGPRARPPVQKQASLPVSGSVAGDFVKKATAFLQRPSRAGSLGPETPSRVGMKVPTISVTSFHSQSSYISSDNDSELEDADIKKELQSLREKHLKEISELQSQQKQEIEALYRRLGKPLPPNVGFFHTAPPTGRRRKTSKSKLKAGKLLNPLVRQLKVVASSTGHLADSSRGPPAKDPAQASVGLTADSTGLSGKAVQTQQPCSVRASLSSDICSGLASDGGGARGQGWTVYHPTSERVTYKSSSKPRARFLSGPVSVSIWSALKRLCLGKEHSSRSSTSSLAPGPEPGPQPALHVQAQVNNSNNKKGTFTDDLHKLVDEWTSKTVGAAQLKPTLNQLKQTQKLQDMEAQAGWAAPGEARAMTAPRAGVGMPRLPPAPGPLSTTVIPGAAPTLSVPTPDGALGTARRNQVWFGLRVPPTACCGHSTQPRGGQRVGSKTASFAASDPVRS

inhibition [1]: 5%
inhibition [2]: 0%
inhibition (TAK1/TAB1 (Homo sapiens)): 27.9%
inhibition [3]: 82%
inhibition [4]: 17%
inhibition [5]: 13%
inhibition [6]: 4.1%
inhibition [7]: 93%
inhibition [8]: 101%
Structure (SMILES): CN1CCc2cc(-c3cnc4[nH]cc(C(=O)c5ccccc5Cl)c4c3)ccc2C1

inhibition [9]: 3.3%
inhibition [10]: -0.6%
inhibition [11]: -2.9%
inhibition [12]: -1%
inhibition [13]: -2%
inhibition [14]: 3.6%
inhibition [15]: 0.1%
inhibition [16]: 1.4%
inhibition [17]: -5%
inhibition [18]: 6.6%
inhibition [19]: 0%
inhibition [20]: 9.8%
inhibition [21]: 5.4%
inhibition [22]: -6.4%
inhibition [23]: 8.8%
inhibition [24]: 2.8%
inhibition [25]: 4.6%
inhibition [26]: 1.7%
inhibition [27]: -1.4%
inhibition [28]: -2.4%
inhibition [29]: 1.9%
inhibition [30]: 4.4%
inhibition [31]: -2%
inhibition [32]: 10.8%
inhibition [33]: 11.3%
inhibition [34]: 1%
inhibition [35]: 4.3%
inhibition [36]: 4%
inhibition [37]: 4.7%
inhibition [38]: 5%
Structure (SMILES): COCCNc1nc2ccc(C#CC3(O)CCCCC3)cc2n1-c1ccnc(N)n1

— ChEMBL document CHEMBL5678812, “Inhibitors of p21-activated kinases (PAKs)” (J Med Chem, 2015)
